Results published in patent US8822531B2, “Honokiol analogs and their use in treating cancers” (priority 2007, dated 2014).
Where “and” joins values, the source holds several entries; their conditions need not be identical. Identical values can stand only once.

System: tumor cells
Test: Tumor volume in nude mice injected subcutaneously with tumor cells, treated with honokiol diepoxide
Format: in vivo
Details: 40 mg/kg daily intraperitoneally
Procedure: Nude mice were injected subcutaneously with approximately one million tumor cells. Once tumors became visible, they were treated with 40 mg/kg daily of honokiol diepoxide. The compound was reconstituted in 100 microliters of ethanol and diluted with 900 microliters of 20% Intralipid, and 0.3 ml of this mixture was injected intraperitoneally daily. Tumors were measured with vernier calipers, and tumor volume was calculated using the formula (width^2×length)0.52, where width is the smallest dimension, 2 represents squared, and […].

Oc1ccc(-c2cc(CC3CO3)ccc2O)cc1CC1CO1 (stereo not shown) [Honokiol Epoxide, honokiol diepoxide]
Average (tumor volume) (group average, in mm³ (unit assumed)): 433.3632
Tumor Volume (individual animal, volume = (width^2 x length) x 0.52, 40 mg/kg, in mm³ (unit assumed)): 385.2 and 914.8568 and 0
W (tumor width) (individual animal, vernier calipers, 40 mg/kg): 8.59 and 11 and 0
L (tumor length) (individual animal, vernier calipers, 40 mg/kg, in mm (unit assumed)): 10.04 and 14.54 and 0
